US5516936A, “Inhibitors of kynureninase” (University of Georgia Research Foundation, Inc., priority 1993, dated 1996)
Entries after “also recorded” stand apart in the source; their conditions may differ. Read-outs that look alike come from different tables or passages of the source.

What was measured:
rat renal C-S lyase = conditions: kidney slice methodology; cited from earlier work
bacterial kynureninase [1] = conditions: Kishore (1984), cited from earlier work
Kynureninase = target: T1, Kynureninase (Pseudomonas fluorescens, UniProt P83788); assay: Competitive inhibition of kynureninase by S-aryl cysteines and S-aryl cysteine sulfones; assay type: biochemical; conditions: Table 1; competitive inhibition vs L-kynurenine, pH 7.8, 25° C.; footnote 1: 0.07 is an upper limit; read-out: Ki
T1 construct: Bacterial kynureninase was prepared from cells of Pseudomonas fluorescens; endogenous in cells; partially purified by DEAE-cellulose and ammonium sulfate
T1 sequence (P83788 1-416): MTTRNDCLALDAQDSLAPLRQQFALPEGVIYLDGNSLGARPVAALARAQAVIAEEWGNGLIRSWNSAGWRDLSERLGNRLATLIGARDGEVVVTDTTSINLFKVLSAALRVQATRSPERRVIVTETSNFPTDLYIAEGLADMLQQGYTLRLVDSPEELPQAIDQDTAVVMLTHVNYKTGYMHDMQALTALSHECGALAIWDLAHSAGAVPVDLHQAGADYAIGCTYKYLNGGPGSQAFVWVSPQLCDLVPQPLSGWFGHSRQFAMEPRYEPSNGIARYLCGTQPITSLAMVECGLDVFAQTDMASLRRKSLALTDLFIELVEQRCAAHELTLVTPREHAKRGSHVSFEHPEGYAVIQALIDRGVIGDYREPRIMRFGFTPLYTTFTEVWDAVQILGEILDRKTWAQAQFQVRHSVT
Protocol: Bacterial kynureninase was prepared from cells of Pseudomonas fluorescens (ATCC 11250, for example) essentially as described by .Hayaishi and Stanier (1952) J. Biol. Chem. 195:735-740. Cells were grown on a minimal medium containing 0.1% L-tryptophan as the sole carbon and nitrogen source.
From 100 1 of medium, grown for 18 h at 30° C. 230 g of wet cell paste was obtained. The cells were suspended in 1 of 0.01M potassiumphosphate, pH 7.0, and disrupted by 2 passages through a Manton-Gaulin homogenizer. After centrifugation of the cell extract for 1 h at 10000 g, the enzyme was partially purified by ion-exchange chromatography on DEAE-cellulose and ammonium sulfate precipitation.
Kynureninase activity was measured at 25° C. by following the decrease in absorbance at 360 nm (ε=-4500M^-1 cm^-1). A typical assay mixture contained 0.4 mM L-kynurenine in 0.04M potassium phosphate, pH 7.8, containing 40 μM pyridoxal-5'-phosphate, at 25° C. The reactions of S-aryl cysteines and S-aryl cysteine sulfones with kynureninase were performed using a spectrophotometric coupled assay with lactate dehydrogenase and NADH, by monitoring a decrease in absorbance due to pyruvate formation. A typical assay mixture contained 30 μl lactate dehydrogenase solution (2 mg/ml), 0.1 mM NADH, 40 μM pyridoxal-5'-phosphate, 0.04M tris.HCl buffer, pH 7.8, with varying concentrations of the compounds. The competitive inhibition of these compounds was measured by variation of L-kynurenine concentrations at several fixed values of the inhibitor. Km and Vmax values were calculated by fitting of initial rate data to the Michaelis-Menten equation with ENZFITTER (Elsevier) on a Z-286 personal computer. KI values were determined from the equation:
v=Vmax[S]/ (Km (1+[I]/Ki)+[S]

bacterial kynureninase [2] = conditions: cited from earlier work; for inhibition of bacterial kynureninase (in words): Tanizawa and Soda (1979)

CC(=O)N[C@@H](CSc1c([N+](=O)[O-])cccc1[N+](=O)[O-])C(=O)O [N-acetyl-S-(2,6-dinitrophenyl)-L-cysteine]
inhibition of C-S lyase (in words) (rat renal C-S lyase): inhibit

CC(=O)N[C@@H](CSc1ccc([N+](=O)[O-])cc1Cl)C(=O)O [N-acetyl-S-(2-chloro-4-nitrophenyl)-L-cysteine]
inhibition of C-S lyase (in words) (rat renal C-S lyase): inhibit

CC(=O)N[C@@H](CSc1ccc([N+](=O)[O-])c([N+](=O)[O-])c1)C(=O)O [N-acetyl-S-(3,4-dinitrophenyl)-L-cystsine]
inhibition of C-S lyase (in words) (rat renal C-S lyase): inhibit

N[C@@H](CSc1c([N+](=O)[O-])cccc1[N+](=O)[O-])C(=O)O [S-(2,6-dinitrophenyl)-L-cysteine]
inhibition of C-S lyase (in words) (rat renal C-S lyase): inhibit

N[C@@H](CSc1ccccc1[N+](=O)[O-])C(=O)O [S-(2-nitrophenyl)-L-cysteine]
inhibition of C-S lyase (in words) (rat renal C-S lyase): inhibit | Ki (bacterial kynureninase [1]): 100 µM | inactivation of kynureninase (in words) (bacterial kynureninase [1]): inactivates kynureninase; also recorded: most efficient suicide substrate at low concentrations; also recorded: suicide inhibitor of kynureninase | reaction with kynureninase (in words) (bacterial kynureninase [1]): react with kynureninase to give pyruvate and ammonia | inactivation of kynureninase (in words) (bacterial kynureninase [1]; listed as S-(2-nitrophenyl)-L-cystsine): inactivated kynureninase | Ki (Kynureninase): 100 µM

N[C@@H](CSc1ccc([N+](=O)[O-])cc1)C(=O)O [S-(4-nitrophenyl)-L-cysteine]
inhibition of C-S lyase (in words) (rat renal C-S lyase): inhibit

Nc1ccccc1C=O [o-aminobenzaldehyde]
inhibition of bacterial kynureninase (in words) (bacterial kynureninase [2]): strongly inhibited | Ki (bacterial kynureninase [2]; non-competitive inhibition): 6.5 µM

O=Cc1ccccc1[N+](=O)[O-] [o-nitrobenzaldehyde]
inhibition of bacterial kynureninase (in words) (bacterial kynureninase [2]): inhibitors
